Measured values: paper PMC11407758, “Integrated stress response (ISR) activation and apoptosis through HRI kinase by PG3 and other p53 pathway-restoring cancer therapeutics” (Oncotarget, 2024)
Read-outs that look alike come from different tables or passages of the source.

How the values were obtained:
HCT116 (P53−/−) = experiment: Cell viability assay (CellTiterGlo), HCT116 p53-/-; type: cell-based, human; conditions: Homo sapiens, HCT-116; 72 h, CellTiterGlo
Description: (§1) Figure 1 PG3 inhibits cell proliferation and growth in a p53-indepent manner. (A–E) Cell viability assay, dose response curves and IC50 value measurements in a panel of cancer cell lines and normal cells. Cells were treated with different concentrations of PG3, PG3-Oc (Oc), obatoclax (Ob), prodigiosin (P) or DMSO for 72 h. Luciferase activity was imaged by the IVIS Imaging System after treatment. Cell viability data were normalized to those of DMSO treatment control in each cell line and data analyses were performed using PRISM4 software. IC50 data are expressed as the mean ±SD (normal; n = 3).
as §1, with “2 p53-dependent inhibition of” for “1 PG3 inhibits”, “is only observed at specific concentrations. (A–J)” for “and growth in a p53-indepent manner. (A–E)”, “ZMC1, CP-313908, APR-246, Ellipticine, Nutalin-3a” for “PG3, PG3-Oc (Oc), obatoclax (Ob), prodigiosin (P)”
(§2) Cells were seeded in 96-well plates (6 × 10^3 cells/well). Cells were treated with different concentrations of compounds or dimethyl sulfoxide (DMSO) as a control for 72 hours. The cell viability was assessed by CellTiterGlo bioluminescent cell viability assay (Promega), following the manufacturer’s protocol. Bioluminescence imaging was measured using the IVIS imager. The percentage of cell viability (mean ± SEM) at each dose was calculated against the respective DMSO control. The IC50 values were determined from the sigmoidal dose-response curves using GraphPad Prism.

[1] = tested on: MRC5 (human lung fibroblast cell with wild-type p53); experiment: Cell viability assay (CellTiterGlo), MRC5 normal cells; type: cell-based; conditions: read-out: IC50 values, MRC5 (WT)
Description: as §1
as §1, with “2 p53-dependent inhibition of” for “1 PG3 inhibits”, “is only observed at specific concentrations. (A–J)” for “and growth in a p53-indepent manner. (A–E)”, “ZMC1, CP-313908, APR-246, Ellipticine, Nutalin-3a” for “PG3, PG3-Oc (Oc), obatoclax (Ob), prodigiosin (P)”
as §2

[2] = tested on: SW480 cells carrying a p53-responsive luciferase reporter; experiment: p53-responsive reporter assay; type: cell-based, human
Description: SW480 cells carrying a p53-responsive luciferase reporter were used for assay of functional restoration of mutant p53. Cells were seeded in 96-well plates (5 × 10^4 cells/well) and were treated with compounds indicated for 6 and 15 h, respectively. Then, D-luciferin was added to each well with final concentration 100 μg/mL, and cells were imaged by using an IVIS Imaging System to detect luciferase activity.
p53-mutant SW480 human colon cancer cells, stably expressing a p53-responsive luciferase reporter, were used to assay functional restoration p53 pathway-dependent transcription in mutant p53-expressing tumor cells. Cells were seeded in 96-well plates (5 × 10^4 cells/well) and were treated with small-molecule compounds for 6 and 15 h, respectively. Then, D-luciferin was added to each well at a final concentration of 100 μg/mL, and cells were imaged by using an IVIS Imaging System (Xenogen) to detect luciferase activity.

[3] = tested on: HT29, TOV-112D, isogenic HCT116 cell lines, HFF-1 and MRC5; experiment: Cell viability assay, panel of cancer cell lines and normal cells (results in words); type: cell-based, human; conditions: 10 μM; all cell lines tested and normal cells
Description: as §1, with “2 p53-dependent inhibition of” for “1 PG3 inhibits”, “is only observed at specific concentrations. (A–J)” for “and growth in a p53-indepent manner. (A–E)”, “ZMC1, CP-313908, APR-246, Ellipticine, Nutalin-3a” for “PG3, PG3-Oc (Oc), obatoclax (Ob), prodigiosin (P)”
as §2

HCT116 (R175H) = experiment: Cell viability assay (CellTiterGlo), HCT116 R175H; type: cell-based, human; conditions: for IC50: 72 h, CellTiterGlo
Description: as §1
as §1, with “2 p53-dependent inhibition of” for “1 PG3 inhibits”, “is only observed at specific concentrations. (A–J)” for “and growth in a p53-indepent manner. (A–E)”, “ZMC1, CP-313908, APR-246, Ellipticine, Nutalin-3a” for “PG3, PG3-Oc (Oc), obatoclax (Ob), prodigiosin (P)”
as §2

HT29 (R273H) = experiment: Cell viability assay (CellTiterGlo), HT29; type: cell-based, human; conditions: for IC50: 72 h, CellTiterGlo
Description: as §1
as §1, with “2 p53-dependent inhibition of” for “1 PG3 inhibits”, “is only observed at specific concentrations. (A–J)” for “and growth in a p53-indepent manner. (A–E)”, “ZMC1, CP-313908, APR-246, Ellipticine, Nutalin-3a” for “PG3, PG3-Oc (Oc), obatoclax (Ob), prodigiosin (P)”
as §2

p21 = experiment: Western blot, p21 induction; type: cell-based, human
Description: (§3) Figure 4 Activation of ATF4 and up-regulation of typical p53 target genes. (A–E) Western blot analysis of p53 protein levels and upregulation of ATF4, PUMA, DR5 and p21. Cells were treated for 24 h with indicated compounds, concentrations and cell lines. Abbreviations: S.E.: Short exposure; L.E.: Long exposure.
(§4) After treatment, protein lysates were collected for Western blot analysis. A total of 15 μg of protein was used for SDS-PAGE. After primary and secondary antibody incubations, the signal was detected by a chemiluminescence detection kit, imaged by Syngene (Imgen Technologies). Antibodies for NAG-1 (GDF15) and P53 were from Santa Cruz Biotechnology; for caspase 8, cleaved caspase 8, caspase 9, caspase 3, cleavage PARP, eIF2α, p-eIF2α (Ser51), CHOP, ATF4, DR5, and PUMA were from Cell Signaling Technology. Noxa and p21 were from Calbiochem. Ran was from BD Biosciences.

PUMA = experiment: Western blot, PUMA induction; type: cell-based, human
Description: as §3, §4

TOV-112D (R175H) = experiment: Cell viability assay (CellTiterGlo), TOV-112D; type: cell-based, human; conditions: Homo sapiens, TOV112D; 72 h, CellTiterGlo; read-out: IC50 values, TOV-1120 (R175H) (converted)
Description: as §1
as §1, with “2 p53-dependent inhibition of” for “1 PG3 inhibits”, “is only observed at specific concentrations. (A–J)” for “and growth in a p53-indepent manner. (A–E)”, “ZMC1, CP-313908, APR-246, Ellipticine, Nutalin-3a” for “PG3, PG3-Oc (Oc), obatoclax (Ob), prodigiosin (P)”
as §2

[4] = cited from earlier work
p53 protein = experiment: Western blot, p53 protein levels; type: cell-based, human; conditions: for wild-type p53 protein level: HCT116, 24 h; for endogenous mutant p53 R273H protein level: HT29, 24 h; for endogenous mutant p53 R175H protein level: TOV-112D; for endogenous mutant p53 R175H protein level / exogenous mutant p53 R175H protein level: 24 h; for exogenous mutant p53 R175H protein level: engineered HCT116-R175H cells
Description: Cells were treated for 24 h with indicated compounds, concentrations and cell lines. Abbreviations: S.E.: Short exposure; L.E.: Long exposure.
as §4

[5] = tested on: HCT116 (wild-type), SW480 (R273H, P309S), and DLD1 (S241F); experiment: Cell viability assay in colorectal cancer cell lines (Figure 1E); type: cell-based, human; conditions: 72 h
Description: as §1, §2

ATF4 = experiment: Western blot, ATF4 induction; type: cell-based, human; conditions: 24 h
Description: as §3, §4

[6] = tested on: HFF-1 (human foreskin fibroblast cell with wild-type p53); experiment: Cell viability assay (CellTiterGlo), HFF-1 normal cells; type: cell-based; conditions: 72 h, CellTiterGlo, normal cells, read-out: IC50 values, HFF-l (WT)
Description: as §1
as §1, with “2 p53-dependent inhibition of” for “1 PG3 inhibits”, “is only observed at specific concentrations. (A–J)” for “and growth in a p53-indepent manner. (A–E)”, “ZMC1, CP-313908, APR-246, Ellipticine, Nutalin-3a” for “PG3, PG3-Oc (Oc), obatoclax (Ob), prodigiosin (P)”
as §2

DR5 = experiment: Western blot, DR5 induction; type: cell-based, human
Description: as §3, §4

HCT116 (WT) = experiment: Cell viability assay (CellTiterGlo), HCT116 WT; type: cell-based, human; conditions: Homo sapiens, HCT-116; 72 h, CellTiterGlo
Description: as §1
as §1, with “2 p53-dependent inhibition of” for “1 PG3 inhibits”, “is only observed at specific concentrations. (A–J)” for “and growth in a p53-indepent manner. (A–E)”, “ZMC1, CP-313908, APR-246, Ellipticine, Nutalin-3a” for “PG3, PG3-Oc (Oc), obatoclax (Ob), prodigiosin (P)”
as §2

## CCCCCCCCOC(=O)CCc1c(C)[nH]c(/C=C2\N=C(c3ccc[nH]3)C=C2OC)c1C [PG3-Oc]
HCT116 (P53−/−)
  IC50: 0.062 µM
[1]; Homo sapiens, MRC5, 72 h
  IC50: 0.078 µM
[2]; 1.11 μM, 6 hour and 15 hour time points
  p53-responsive reporter activity: do not activate reporter activity
[2]; 10 μM, 6 hours
  p53-responsive reporter activity: activation
[3]
  toxicity at 10 μM: too toxic
HCT116 (R175H); Homo sapiens, HCT-116
  IC50: 0.052 µM
HT29 (R273H); Homo sapiens, HT-29
  IC50: 0.031 µM
p21; five cell lines, 24 h
  upregulation of p21: consistently induce upregulation
PUMA; five cell lines, 24 h
  upregulation of PUMA: consistently induce upregulation
TOV-112D (R175H)
  IC50: 0.038 µM
[4]
  stability in vivo: unstable in vivo
p53 protein
  wild-type p53 protein level: do not upregulate expression
  endogenous mutant p53 R273H protein level: no effects on stability
  endogenous mutant p53 R175H protein level: no effects on stability
  exogenous mutant p53 R175H protein level: stabilize
[5]
  potency compared among PG3-Oc, prodigiosin and Obatoclax: same potency
ATF4; five cancer cell lines
  upregulation of ATF4: induce upregulation of ATF4
[6]; Homo sapiens, HFF-1
  IC50: 0.306 µM
DR5; five cell lines, 24 h
  upregulation of DR5: consistently induce upregulation
HCT116 (WT)
  IC50: 0.047 µM

## COc1ccc(/C=C/c2nc(NCCCN(C)C)c3ccccc3n2)cc1 [CP-31398]
[1]; 72 h
  IC50: 5.92 µM
[2]; 30 μM, 15 hour time point
  p53-responsive reporter activity: able to activate the reporter
HCT116 (R175H)
  IC50: 9.58 µM
HCT116 (R175H); HCT116-R175H compared to HCT116 (WT) and HCT116 p53–/–, 10 μM
  selective inhibition among HCT116 isogenic cell lines: selective inhibition
HT29 (R273H)
  IC50: 0.647 µM
HT29 (R273H); HT29, 0.04 μM
  inhibition of cell viability: potently inhibited
HT29 (R273H); HT29 vs HFF-1
  fold more potency in HT29 than in HFF-1: 12.2 fold
HT29 (R273H); HT29 vs MRC5
  fold more potency in HT29 than in MRC5: 9.1 fold
p21; HCT116 (p53 wild-type), 24 h
  upregulation of p21: significantly
p21; HCT116 p53-R175H, 24 h
  upregulation of p21: barely
p21; HCT116 p53–/–, 24 h
  upregulation of p21: barely
p21; HT29, 24 h
  upregulation of p21: significantly
p21; TOV-112D, 24 h
  upregulation of p21: upregulates p21 strongly
PUMA; HCT116 (p53 wild-type), 24 h
  upregulation of PUMA: induces PUMA expression
PUMA; HCT116 p53-R175H, 24 h
  upregulation of PUMA: barely
PUMA; HCT116 p53–/–, 24 h
  upregulation of PUMA: barely
PUMA; HT29, 24 h
  upregulation of PUMA: induces PUMA expression
PUMA; TOV-112D, 24 h
  upregulation of PUMA: barely
p53 protein
  wild-type p53 protein level: marginal stabilization
  endogenous mutant p53 R273H protein level: stabilizes
  endogenous mutant p53 R175H protein level: marginally destabilizes
  exogenous mutant p53 R175H protein level: no effects
ATF4; HT29 and TOV-112D, compared to PG3 and PG3-Oc
  upregulation of ATF4: more potently induces upregulation of ATF4
ATF4; three isogenic HCT116 cell lines
  upregulation of ATF4: does not upregulate ATF4
[6]
  IC50: 7.92 µM
DR5; HCT116 (p53 wild-type), 24 h
  upregulation of DR5: does not upregulate DR5
DR5; HCT116 p53-R175H, 24 h
  upregulation of DR5: does not upregulate DR5
DR5; HCT116 p53–/–, 24 h
  upregulation of DR5: does not upregulate DR5
DR5; HT29, 24 h
  upregulation of DR5: mildly upregulates DR5
DR5; TOV-112D, 24 h
  upregulation of DR5: upregulates DR5 in a comparable manner to PG3 and PG3-Oc
